Reference: patent US20240174690A1, “ANNULATED 2-AMINO-3-CYANO THIOPHENES AND DERIVATIVES FOR THE TREATMENT OF CANCER” (BOEHRINGER INGELHEIM INTERNATIONAL GMBH, priority 2021, published 2024)
pIC50: −log10 of the molar value.

Assays:
KRAS (G12C)::SOS1 = KRAS (G12C)::SOS1 (Homo sapiens (Human), UniProt P01116, C118S/C51S/C80L/G12C); assay: KRAS::SOS1 AlphaScreen binding assay, KRAS G12C
Method in brief: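 KRAS 1-169 (biotinylated avi-tag) with GST-SOS1 564-1049 and 10 µM GDP in PBS/0.1% BSA/0.05% Tween 20: WT and G13D 10 nM each with 10 nM SOS1; G12D 10 nM and G12C 7.5 nM with 5 nM SOS1. After 30 min, glutathione acceptor/streptavidin donor beads were added for 60 min at RT in the dark, then AlphaScreen read; 4-parameter IC50.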

LOVO cells = assay: LOVO CTG proliferation assay (120 h) (CRC, G13D); format: cell-based; settings: Homo sapiens, CTG 120 h
Method in brief: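 LOVO cells, 1000 per well in DMEM + 10% FCS, were plated overnight and then dosed with compound from DMSO stock. After 120 h at 37 °C, viability was read by CellTiter-Glo luminescence as a percentage of DMSO controls. IC50 was derived by four-parameter non-linear regression.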

KRAS (G12C)::SOS1, sequence (P01116 other isoform, or with tags, fused parts or gaps G12C/C51S/C80L/C118S): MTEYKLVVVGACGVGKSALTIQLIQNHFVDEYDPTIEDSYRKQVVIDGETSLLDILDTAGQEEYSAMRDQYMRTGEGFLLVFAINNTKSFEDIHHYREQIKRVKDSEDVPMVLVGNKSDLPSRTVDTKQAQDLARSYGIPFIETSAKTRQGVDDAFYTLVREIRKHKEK

Row | Structure (SMILES) | pIC50 (KRAS (G12C)::SOS1) | pIC50 (LOVO cells)
1 | C[C@H](Oc1cc(-n2cncc3ccnc2-3)nc(-c2onc3c2CCC[C@@]32CCCc3sc(N)c(C#N)c32)n1)[C@@H]1CCCN1C [I-14] | 8.70 | 5.87
2 | C[C@H]1CNCCCN1c1nc(-c2onc3c2CCC[C@@]32CCCc3sc(N)c(C#N)c32)cc(C(F)(F)F)n1 [I-15] | 6.52 | –
3 | CO[C@@H]1C[C@@H]([C@H](C)Oc2cc(-c3cnn(C)n3)nc(-c3onc4c3CCC[C@@]43CCCc4sc(N)c(C#N)c43)n2)N(C)C1 [I-17] | 8.40 | 6.14
4 | C[C@H](O)Cn1ncc(-c2cc(O[C@@H](C)[C@@H]3CCCN3C)nc(-c3noc4c3CCC[C@@]43CCCc4sc(N)c(C#N)c43)n2)n1 [II-134] | 8.70 | 5.49
5 | C[C@H](Oc1cc(-n2cc3c(n2)CCN(C)C3)nc(-c2noc3c2CCC[C@@]32CCCc3sc(N)c(C#N)c32)n1)[C@@H]1CCCN1C [II-141] | 8.70 | 6.55
6 | C[C@H](Oc1cc(-c2ccn(C)n2)nc(-c2noc3c2CCC[C@@]32CCCc3sc(N)c(C#N)c32)n1)[C@@H]1C[C@H](F)CN1C [II-144] | 8.52 | 5.55
7 | C[C@H](Oc1cc(N2CCN(C)C3(COC3)C2)nc(-c2noc3c2CCC[C@@]32CCCc3sc(N)c(C#N)c32)n1)[C@@H]1C[C@@H](F)CN1C [II-148] | 8.70 | 6.96
8 | C[C@H](Oc1cc(N2CCN(C)C3(CC3)C2)nc(-c2noc3c2CCC[C@@]32CCCc3sc(N)c(C#N)c32)n1)[C@@H]1C[C@@H](F)CN1C [II-149] | 8.10 | 6.57
9 | C[C@H](Oc1cc(N2CCN(C)C3(CCOC3)C2)nc(-c2noc3c2CCC[C@@]32CCCc3sc(N)c(C#N)c32)n1)[C@@H]1C[C@@H](F)CN1C (some centres unmarked) [II-151] | 8.10 | 5.97
10 | C[C@H](Oc1cc(N2CC3COCC(C2)N3)nc(-c2noc3c2CCC[C@@]32CCCc3sc(N)c(C#N)c32)n1)[C@@H]1CCCN1C [II-160] | 8.15 | 5.12
11 | C[C@@H]1CN(c2cc(O[C@@H](C)[C@@H]3CCCN3C)nc(-c3noc4c3CCC[C@@]43CCCc4sc(N)c(C#N)c43)n2)CCN1 [II-161] | 8.30 | 6.33
12 | C[C@H](Oc1cc(N2CCN[C@@H](C)C2)nc(-c2noc3c2CCC[C@@]32CCCc3sc(N)c(C#N)c32)n1)[C@@H]1CCCN1C [II-162] | 8.52 | 6.40
13 | C[C@H](Oc1cc([C@H]2CCNC2)nc(-c2noc3c2CCC[C@@]32CCCc3sc(N)c(C#N)c32)n1)[C@@H]1CCCN1C [II-163] | 8.70 | 5.96
14 | CC(C)[C@@H]1CN(c2cc(O[C@@H](C)[C@@H]3CCCN3C)nc(-c3noc4c3CCC[C@@]43CCCc4sc(N)c(C#N)c43)n2)CCN1 [II-166] | 8.10 | 6.06
15 | C[C@H](Oc1cc(N2C[C@@H]3[C@@H](N)[C@@H]3C2)nc(-c2noc3c2CCC[C@@]32CCCc3sc(N)c(C#N)c32)n1)[C@@H]1CCCN1C [II-167] | 8.30 | 5.19
16 | C[C@H](Oc1cc(-n2cc3c(n2)CNC3)nc(-c2noc3c2CCC[C@@]32CCCc3sc(N)c(C#N)c32)n1)[C@@H]1CCCN1C [II-168] | 8.70 | 6.71
17 | C[C@H](Oc1cc(N2CCN(C)C3(CC3)C2)nc(-c2noc3c2CCC[C@@]32CCCc3sc(N)c(C#N)c32)n1)[C@@H]1CCCN1C [II-171] | 8.30 | 6.23
18 | C[C@H](Oc1cc(N2C[C@H](C)N(C)[C@@H](C)C2)nc(-c2noc3c2CCC[C@@]32CCCc3sc(N)c(C#N)c32)n1)[C@@H]1CCCN1C [II-173] | 8.30 | 5.91
19 | CO[C@H]1CCN(C)[C@@H]1[C@H](C)Oc1cc(-n2ccc(CC(=O)NC(C)C)n2)nc(-c2noc3c2CCC[C@@]32CCCc3sc(N)c(C#N)c32)n1 [II-183] | 8.70 | 8.05
20 | CNC1CCN(c2cc(O[C@@H](C)[C@@H]3CCCN3C)nc(-c3noc4c3CCC[C@@]43CCCc4sc(N)c(C#N)c43)n2)CC1 [II-214] | 8.05 | –
